In ChEMBL document CHEMBL6103575, “Design, synthesis and evaluation of (E)-1-(4-(2-(1H-pyrazol-5-yl)vinyl)phenyl) derivatives as next generation selective RET inhibitors overcoming RET solvent front mutations (G810C/R)” (Eur J Med Chem, 2025):

Columns and labels:
[1] = Induction of apoptosis in mouse BaF3 cells harboring CCDC6-RET G810R mutant assessed as early apoptotic cells at 10 nM incubated for 48 hrs by Annexin V-PE staining based flow cytometry analysis (Rvb =10 %); format: functional
[2] = Induction of apoptosis in mouse BaF3 cells harboring CCDC6-RET G810R mutant assessed as early apoptotic cells at 300 nM incubated for 48 hrs by Annexin V-PE staining based flow cytometry analysis (Rvb =10 %); format: functional
BaF3 [3] = test: Inhibition of RET phosphorylation in mouse BaF3 cells harboring CCDC6-RET incubated for 12 hrs by Western blotting analysis; format: cell-based; conditions: dose <= 300.0 nM
[4] = Induction of cell cycle arrest in mouse BaF3 cells harboring CCDC6-RET G810R mutant assessed as accumulation of cells at G2/M phase at 100 nM incubated for 24 hrs by propidium iodide staining based analysis (reference value: 33.61%); format: functional
[5] = Induction of apoptosis in mouse BaF3 cells harboring CCDC6-RET G810C mutant assessed as early apoptotic cells at 300 nM incubated for 48 hrs by Annexin V-PE staining based flow cytometry analysis (Rvb =8.74%); format: functional
[6] = Induction of apoptosis in mouse BaF3 cells harboring CCDC6-RET assessed as viable cells at 10 nM incubated for 48 hrs by Annexin V-PE staining based flow cytometry analysis (Rvb =91.16%); format: functional; conditions: read-out: Activity
[7] = Induction of apoptosis in mouse BaF3 cells harboring CCDC6-RET assessed as necrotic cells at 100 nM incubated for 48 hrs by Annexin V-PE staining based flow cytometry analysis (Rvb =0.19%); format: functional
[8] = target: T1, Ephrin type-B receptor 4 (Homo sapiens) (UniProt P54760); test: Inhibition of EPHB4 (unknown origin) at 1 uM relative to control
T1 sequence (whole entry): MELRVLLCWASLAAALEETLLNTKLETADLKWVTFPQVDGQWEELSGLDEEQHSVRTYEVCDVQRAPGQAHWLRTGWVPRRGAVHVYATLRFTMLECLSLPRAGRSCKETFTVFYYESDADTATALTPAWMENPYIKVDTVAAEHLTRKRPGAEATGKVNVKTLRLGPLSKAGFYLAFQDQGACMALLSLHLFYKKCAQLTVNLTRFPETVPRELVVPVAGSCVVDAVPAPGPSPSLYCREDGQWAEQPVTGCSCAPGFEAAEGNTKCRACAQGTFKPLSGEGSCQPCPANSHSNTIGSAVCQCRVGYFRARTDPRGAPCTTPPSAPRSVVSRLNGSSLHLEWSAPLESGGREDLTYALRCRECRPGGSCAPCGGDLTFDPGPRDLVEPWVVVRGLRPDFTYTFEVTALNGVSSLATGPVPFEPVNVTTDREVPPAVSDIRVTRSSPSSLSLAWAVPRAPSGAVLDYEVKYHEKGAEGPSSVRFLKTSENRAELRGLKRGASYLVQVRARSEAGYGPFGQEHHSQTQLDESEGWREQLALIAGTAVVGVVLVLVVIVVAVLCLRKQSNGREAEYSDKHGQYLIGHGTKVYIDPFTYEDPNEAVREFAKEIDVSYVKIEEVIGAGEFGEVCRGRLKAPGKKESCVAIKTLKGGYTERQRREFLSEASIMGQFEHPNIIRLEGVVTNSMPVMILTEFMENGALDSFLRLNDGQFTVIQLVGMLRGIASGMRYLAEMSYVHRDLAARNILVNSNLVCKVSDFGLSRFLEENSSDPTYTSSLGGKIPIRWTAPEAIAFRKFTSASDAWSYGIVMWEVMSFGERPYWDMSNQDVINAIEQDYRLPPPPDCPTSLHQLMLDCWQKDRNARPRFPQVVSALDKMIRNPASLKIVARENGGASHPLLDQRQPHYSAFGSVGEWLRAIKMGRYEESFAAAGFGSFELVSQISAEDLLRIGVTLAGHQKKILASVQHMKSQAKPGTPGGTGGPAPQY

[9] = target: Proto-oncogene tyrosine-protein kinase receptor Ret (Homo sapiens, UniProt P07949); test: Inhibition of RET (unknown origin)
Chain of Proto-oncogene tyrosine-protein kinase receptor Ret (P07949 whole entry): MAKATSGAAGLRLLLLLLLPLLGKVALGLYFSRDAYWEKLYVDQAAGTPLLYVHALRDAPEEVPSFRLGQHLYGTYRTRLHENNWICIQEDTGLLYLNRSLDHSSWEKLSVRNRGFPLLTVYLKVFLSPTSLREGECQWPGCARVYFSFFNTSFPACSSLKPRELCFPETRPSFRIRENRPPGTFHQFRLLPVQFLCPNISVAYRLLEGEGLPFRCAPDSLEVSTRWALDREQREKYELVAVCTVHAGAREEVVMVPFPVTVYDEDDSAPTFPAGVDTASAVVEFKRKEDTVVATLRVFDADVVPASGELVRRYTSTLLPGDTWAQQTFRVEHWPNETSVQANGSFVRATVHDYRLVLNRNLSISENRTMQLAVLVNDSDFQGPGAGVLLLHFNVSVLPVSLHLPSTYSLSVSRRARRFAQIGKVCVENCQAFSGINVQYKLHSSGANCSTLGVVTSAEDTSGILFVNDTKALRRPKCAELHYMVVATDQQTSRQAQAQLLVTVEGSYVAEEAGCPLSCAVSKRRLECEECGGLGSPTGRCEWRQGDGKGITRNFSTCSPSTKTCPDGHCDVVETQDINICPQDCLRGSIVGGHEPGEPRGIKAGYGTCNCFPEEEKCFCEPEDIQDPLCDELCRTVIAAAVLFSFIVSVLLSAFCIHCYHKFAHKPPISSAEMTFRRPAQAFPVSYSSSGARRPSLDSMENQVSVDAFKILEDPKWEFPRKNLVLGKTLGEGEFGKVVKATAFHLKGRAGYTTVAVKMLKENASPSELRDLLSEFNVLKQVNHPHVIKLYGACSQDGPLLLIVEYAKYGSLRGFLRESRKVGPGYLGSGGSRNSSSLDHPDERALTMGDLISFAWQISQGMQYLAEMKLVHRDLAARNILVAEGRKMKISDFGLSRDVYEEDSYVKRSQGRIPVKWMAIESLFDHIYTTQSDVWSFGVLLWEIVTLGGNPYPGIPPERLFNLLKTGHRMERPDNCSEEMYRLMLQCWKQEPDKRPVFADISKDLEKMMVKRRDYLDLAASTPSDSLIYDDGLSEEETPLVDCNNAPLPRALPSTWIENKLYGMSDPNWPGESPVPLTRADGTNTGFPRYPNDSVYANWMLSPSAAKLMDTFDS

[10] = Induction of apoptosis in mouse BaF3 cells harboring CCDC6-RET assessed as necrotic cells at 300 nM incubated for 48 hrs by Annexin V-PE staining based flow cytometry analysis (Rvb =0.19%); format: functional
[11] = Induction of apoptosis in mouse BaF3 cells harboring CCDC6-RET G810R mutant assessed as necrotic cells at 100 nM incubated for 48 hrs by Annexin V-PE staining based flow cytometry analysis (Rvb =0.30%); format: functional
[12] = Induction of apoptosis in mouse BaF3 cells harboring CCDC6-RET assessed as late apoptotic cells at 30 nM incubated for 48 hrs by Annexin V-PE staining based flow cytometry analysis (Rvb =2.44%); format: functional
[13] = Induction of cell cycle arrest in mouse BaF3 cells harboring CCDC6-RET G810R mutant assessed as accumulation of cells at S phase at 100 nM incubated for 24 hrs by propidium iodide staining based analysis (reference value: 13.66%); format: functional
[14] = Induction of apoptosis in mouse BaF3 cells harboring CCDC6-RET G810C mutant assessed as viable cells at 30 nM incubated for 48 hrs by Annexin V-PE staining based flow cytometry analysis (Rvb =86.47%); format: functional; conditions: read-out: Activity
[15] = Induction of cell cycle arrest in mouse BaF3 cells harboring CCDC6-RET assessed as accumulation of cells at S phase at 100 nM incubated for 24 hrs by propidium iodide staining based analysis (reference value: 13.27%); format: functional
[16] = Induction of apoptosis in mouse BaF3 cells harboring CCDC6-RET G810R mutant assessed as early apoptotic cells at 100 nM incubated for 48 hrs by Annexin V-PE staining based flow cytometry analysis (Rvb =10 %); format: functional
[17] = Induction of apoptosis in mouse BaF3 cells harboring CCDC6-RET G810R mutant assessed as early apoptotic cells at 30 nM incubated for 48 hrs by Annexin V-PE staining based flow cytometry analysis (Rvb =10 %); format: functional
[18] = target: BDNF/NT-3 growth factors receptor (Homo sapiens, UniProt Q16620); test: Inhibition of TRKB (unknown origin) at 1 uM relative to control
Chain of BDNF/NT-3 growth factors receptor (Q16620 32-822 limits assumed): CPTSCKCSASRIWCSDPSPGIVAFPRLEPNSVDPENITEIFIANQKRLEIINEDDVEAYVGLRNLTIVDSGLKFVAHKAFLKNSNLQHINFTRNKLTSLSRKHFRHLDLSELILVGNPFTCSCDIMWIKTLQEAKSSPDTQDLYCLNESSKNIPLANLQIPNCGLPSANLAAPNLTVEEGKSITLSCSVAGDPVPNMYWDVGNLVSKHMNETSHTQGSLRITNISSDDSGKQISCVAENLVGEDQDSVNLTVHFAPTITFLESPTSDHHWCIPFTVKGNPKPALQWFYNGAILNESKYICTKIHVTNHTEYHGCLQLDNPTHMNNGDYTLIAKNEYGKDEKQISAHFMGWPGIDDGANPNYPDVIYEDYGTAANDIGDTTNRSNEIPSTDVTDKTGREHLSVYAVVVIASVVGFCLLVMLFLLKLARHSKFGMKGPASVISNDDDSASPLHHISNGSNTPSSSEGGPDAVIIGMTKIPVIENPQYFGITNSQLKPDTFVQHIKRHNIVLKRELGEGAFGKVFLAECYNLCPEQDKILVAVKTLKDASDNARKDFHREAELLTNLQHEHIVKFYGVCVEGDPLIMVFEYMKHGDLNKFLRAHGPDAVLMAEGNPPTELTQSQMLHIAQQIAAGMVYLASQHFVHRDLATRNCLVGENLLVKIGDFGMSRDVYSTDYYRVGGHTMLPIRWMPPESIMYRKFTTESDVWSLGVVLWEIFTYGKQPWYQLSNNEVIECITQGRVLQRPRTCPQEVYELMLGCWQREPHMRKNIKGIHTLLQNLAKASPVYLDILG

BaF3 [19] = test: Inhibition of RET phosphorylation in mouse BaF3 cells harboring CCDC6-RET G810C mutant incubated for 12 hrs by Western blotting analysis; format: cell-based; conditions: dose <= 300.0 nM
[20] = Induction of apoptosis in mouse BaF3 cells harboring CCDC6-RET G810C mutant assessed as early apoptotic cells at 10 nM incubated for 48 hrs by Annexin V-PE staining based flow cytometry analysis (Rvb =8.74%); format: functional
[21] = Induction of apoptosis in mouse BaF3 cells harboring CCDC6-RET G810R mutant assessed as late apoptotic cells at 30 nM incubated for 48 hrs by Annexin V-PE staining based flow cytometry analysis (Rvb =3.21%); format: functional
[22] = test system: Proto-oncogene tyrosine-protein kinase receptor Ret (Homo sapiens), P07949 [V804M]; test: Inhibition of RET (unknown origin) V804M mutant at 1 uM relative to control
Chain of Proto-oncogene tyrosine-protein kinase receptor Ret (Homo sapiens), P07949 [V804M] (P07949 whole entry V804M): as the sequence (P07949 whole entry) above, with V804M counted along it

- inhibition [8]: 92.9%
- IC50 [9]: 4.2 nM
- inhibition [18]: 100%
- inhibition [22]: 98.6%
SMILES: COc1cncc(-c2cn[nH]c2/C=C/c2ccc(NC(=O)Nc3cc(C(C)(C)C(F)(F)F)on3)c(Cl)c2)c1
- Activity [1]: 10.05%
- Activity [2]: 0.29%
- inhibition (BaF3 [3]): Dose-dependent-effect
- Activity [4]: 28.68%
- Activity [5]: 91.44%
- viability at 0.01 µM [6]: 86.4%
- Activity [7]: 0.05%
- Activity [10]: 0.04%
- Activity [11]: 0.79%
- Activity [12]: 0.8%
- Activity [13]: 12.78%
- viability at 0.03 µM [14]: 86.2%
- Activity [15]: 7.33%
- Activity [16]: 2.7%
- Activity [17]: 9.96%
- inhibition (BaF3 [19]): Dose-dependent-effect
- Activity [20]: 9.11%
- Activity [21]: 2.48%
